Measured values as given in paper PMC7721091 (Cancer Biology & Medicine, 2020).
Where “and” joins values, the source holds several entries; their conditions need not be identical. Equal values may be shown once.

Key:
[1] = Plasma PK of cyclodextrin-HM co-treated with PTX; type: in vivo, C57BL/6 mice; conditions: at 72 h, co-treatment with PTX
Method: Plasma samples were collected at 72 h for the analysis of PK parameters in PTX-HM treatment (Figure 4D).

[2] = Plasma PK of cyclodextrin-HM after i.v. injection; type: in vivo, C57BL/6 mice; conditions: C57BL/6, mouse, iv, 20 mg/kg
Method: Plasma samples were obtained from mice at 0, 0.083, 0.25, 0.5, 1, 2, 4, 8, and 24 h time points. Non-compartmental analysis of plasma data after intravenous bolus input was used to determine standard PK parameters of analytes. Administration i.v. has the advantage of allowing for rapid exposure as well as precise control of dose and administration of the tested therapeutic compounds[12], and oral administration may be less efficient with low drug bioavailability, owing to drug adsorption and metabolization in the liver. […] Mice were then anesthetized through intraperitoneal injection of pentobarbital (50 mg/kg) before collection of blood for further analysis.

P-gp = P-gp (Homo sapiens, UniProt P08183); conditions: MDCK monolayers transfected with P-gp; among cyclosporin A, elacridar, tariquidar; cited from earlier work
P-gp, sequence (P08183 whole entry): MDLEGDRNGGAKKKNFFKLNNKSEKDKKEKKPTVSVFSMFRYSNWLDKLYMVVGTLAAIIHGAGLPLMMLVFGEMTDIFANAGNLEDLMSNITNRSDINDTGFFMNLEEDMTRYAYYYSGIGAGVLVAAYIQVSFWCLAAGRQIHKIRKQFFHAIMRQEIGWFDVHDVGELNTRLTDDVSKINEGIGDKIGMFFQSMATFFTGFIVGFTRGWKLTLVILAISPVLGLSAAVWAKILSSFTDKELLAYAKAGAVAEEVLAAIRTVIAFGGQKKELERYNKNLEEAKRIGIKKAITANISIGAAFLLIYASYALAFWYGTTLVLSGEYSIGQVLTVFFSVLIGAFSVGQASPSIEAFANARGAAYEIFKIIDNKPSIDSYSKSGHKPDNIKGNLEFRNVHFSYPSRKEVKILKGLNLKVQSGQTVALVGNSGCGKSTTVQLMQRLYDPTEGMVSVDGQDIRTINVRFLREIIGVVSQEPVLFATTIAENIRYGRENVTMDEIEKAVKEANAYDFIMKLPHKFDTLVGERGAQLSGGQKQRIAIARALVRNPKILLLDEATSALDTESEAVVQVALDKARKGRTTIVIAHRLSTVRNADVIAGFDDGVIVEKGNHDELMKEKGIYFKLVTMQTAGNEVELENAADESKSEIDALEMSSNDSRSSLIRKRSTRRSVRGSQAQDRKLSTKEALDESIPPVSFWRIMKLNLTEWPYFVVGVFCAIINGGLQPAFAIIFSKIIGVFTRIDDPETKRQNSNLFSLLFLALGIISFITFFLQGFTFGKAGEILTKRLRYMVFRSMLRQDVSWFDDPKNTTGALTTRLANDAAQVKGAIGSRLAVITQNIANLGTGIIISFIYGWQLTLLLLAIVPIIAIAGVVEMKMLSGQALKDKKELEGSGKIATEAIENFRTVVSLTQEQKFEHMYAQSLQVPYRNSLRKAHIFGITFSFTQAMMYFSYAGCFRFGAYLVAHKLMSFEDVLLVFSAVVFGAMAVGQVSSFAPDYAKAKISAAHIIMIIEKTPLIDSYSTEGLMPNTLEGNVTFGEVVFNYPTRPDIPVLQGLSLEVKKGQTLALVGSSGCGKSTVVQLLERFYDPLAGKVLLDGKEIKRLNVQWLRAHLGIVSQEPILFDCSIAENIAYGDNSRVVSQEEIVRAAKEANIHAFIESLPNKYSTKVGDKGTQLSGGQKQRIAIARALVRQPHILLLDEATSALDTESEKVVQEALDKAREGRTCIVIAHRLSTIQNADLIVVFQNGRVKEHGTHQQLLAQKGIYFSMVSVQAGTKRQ

ABCB1 = conditions: human 293FRT embryonic kidney cells stably expressing ABCB1; cited from earlier work
plasma albumin = plasma albumin (Homo sapiens, UniProt P02768); test: Bio-layer interferometry analysis; type: binding; conditions: BLI, biotinylated albumin
plasma albumin, sequence (P02768 25-609): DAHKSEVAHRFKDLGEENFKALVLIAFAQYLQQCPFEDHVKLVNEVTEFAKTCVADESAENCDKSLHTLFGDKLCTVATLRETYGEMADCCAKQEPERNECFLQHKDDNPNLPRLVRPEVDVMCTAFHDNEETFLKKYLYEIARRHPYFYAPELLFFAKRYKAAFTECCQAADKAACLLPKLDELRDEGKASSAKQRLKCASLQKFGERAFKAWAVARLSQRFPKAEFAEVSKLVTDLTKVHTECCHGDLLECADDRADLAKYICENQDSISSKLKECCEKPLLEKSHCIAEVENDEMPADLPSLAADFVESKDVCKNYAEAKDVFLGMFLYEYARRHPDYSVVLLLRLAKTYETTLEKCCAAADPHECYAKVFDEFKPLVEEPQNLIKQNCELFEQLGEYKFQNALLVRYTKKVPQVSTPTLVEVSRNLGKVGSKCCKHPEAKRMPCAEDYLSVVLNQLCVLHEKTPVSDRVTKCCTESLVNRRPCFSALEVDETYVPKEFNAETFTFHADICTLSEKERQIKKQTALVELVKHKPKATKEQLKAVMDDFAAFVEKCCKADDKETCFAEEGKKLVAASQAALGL
Method: Albumin was biotinylated with EZ-Link NHS-LC-LC-Biotin (Thermo Fisher Scientific, Waltham, MA, USA) for 30 min at room temperature and then added to a 96-well plate (Greiner Bio-One, PN:655209). Biotinylation was performed by loading the reaction complex onto a super streptavidin capacity probe (ForteìBIO, Menlo Park, CA, United States), and results were analyzed with a FortéBIO Octet Red instrument upon binding dPTX or HM. ForteìBIO data analysis software was used to calculate the association and dissociation kinetic constants.

[3] = test system: U-87 MG-Luc2 glioma cells; test: Orthotopic brain tumor model; type: in vivo, BALB/c nude mice; conditions: for MST (median survival time): vehicle MST 33; for ILS (increase in lifespan): no HM
Method: An orthotopic brain tumor model was established by Wuxi Apptec. Briefly, female BALB/c nude mice 6–8 weeks of age and weighing 18–22 g (Shanghai Sippr-BK Laboratory Animal Co. Ltd., Shanghai, China) were anesthetized through intraperitoneal injection of pentobarbital sodium (80 mg/kg) and subcutaneously administered 0.1 mg/kg buprenorphine before and after surgery for analgesia. The anesthetized mice were intracranially (i.c.) inoculated with U-87 MG-Luc2 cells (2×10^5 cells in 2 μL PBS) in the right frontal lobe. […] The physiological condition of the animals was assessed daily. The animals were pre-anesthetized with a mixture gas of oxygen and isoflurane (1%–3%) to achieve a complete anesthetic state before bioluminescence measurements. Tumor growth was monitored with an in vivo imaging system (Lumina III; PerkinElmer, Inc.), and the survival of all animals was recorded for the calculation of the median survival time (MST) for each group. The increase in lifespan (ILS) was determined as the ratio of the MST of the treatment group to that of the control group, expressed as the percentage increase over the lifespan of the control animals.
Statistical analyses were performed in Microsoft Excel (Microsoft Corporation) and Prism (GraphPad Software). The statistical significance for all experiments was determined with one way ANOVA and Dunnett test. Kaplan-Meier statistical analysis was used for the calculation of the survival rates of different groups of mice, each containing 8 animals, and P-values were calculated with the log rank test. […]

in vivo = conditions: C57BL/6, mouse, brain and plasma, iv
Method: The brain samples were homogenized through ultrasonication in saline before the extraction procedure. The collected supernatant was dried under nitrogen gas, reconstituted in acetonitrile, and divided into aliquots that were loaded onto the LC-MS/MS system. […] The mobile phase for measurement of all compounds was phase A (0.1% formic acid in water) and phase B (0.1% formic acid in acetonitrile): 0–3 min/2%–10% B; 3–8 min/10%–60% B; 8–13 min/60%–90% B; 13–14 min/90%–2% B; and 14–15 min/2% B. The column and auto-sampler temperatures were maintained at 40 °C and 4 °C, respectively. Data were analyzed in Agilent MassHunter workstation software vB.01.03 (Agilent Technologies, Inc.). […] The amounts of the 2 drugs in the plasma and brain samples collected from mice were quantified by using standard and linear least-squares regression curves through calculation of the area under curve (AUC).
PK analysis was performed with PKSolver (Microsoft Corporation)[15]. […] PK analysis was performed through non-compartmental analysis according to Bailer’s method[16].
The percentage penetration of a drug into the brain was expressed as brain AUC0-72hr /plasma AUC0-72hr.

AUC 0-t/0-inf_obs ratio [1] [%] | AUC(0-t) ([2]; read-out: area under the curve (AUC0-t)) [µg·h/mL] | half-life ([2]; read-out: half-life (t1/2)) [h] | Compound | potency in inhibiting the transepithelial transport of PTX (P-gp) | potency in inhibiting P-gp-mediated transport of Rho123, relative to XR9576 (Tariquidar) (ABCB1) | Kd (plasma albumin) | MST (median survival time) ([3]; PTX 5 mg/kg i.v. q4d×5, no HM) | ILS (increase in lifespan) ([3]; PTX 5 mg/kg) [%] | MST (median survival time) ([3]; PTX 10 mg/kg i.v. q4d×5, no HM) | ILS (increase in lifespan) ([3]; PTX 10 mg/kg) [%] | Kp at 0.5 h (in vivo) | Kp (in vivo; 10 mg/kg)
96 | 4.75 to 9.76 | 18.7 to 40.6 | COc1cc2c(cc1OC)CN(CCc1ccc(-n3nnc(-c4cc(OC)c(OC)cc4NC(=O)c4cc(=O)c5ccccc5o4)n3)cc1)CC2 [HM, HM30181A] | highest potency | ~ 24 times | – | – | – | – | – | – | –
– | – | – | CC(=O)O[C@H]1C(=O)[C@@]2(C)[C@H]([C@H](OC(=O)c3ccccc3)[C@]3(O)C[C@H](OC(=O)[C@H](O)[C@@H](NC(=O)c4ccccc4)c4ccccc4)C(C)=C1C3(C)C)[C@]1(OC(C)=O)CO[C@@H]1C[C@@H]2O [PTX, Paclitaxel] | – | – | 43.3 µM and 43 µM | 33 day and 33 (30~38) day | 0 | 35 day and 35 (30~38) day | 6 | 0.46 | 0.29
